Experimental data taken from patent US7214663B2, “Tripeptide prodrug compounds” (Medarex, Inc., priority 2001, dated 2007).
Like-named read-outs stand apart in the source and are kept apart here.

Legend:
Namalwa cells (CD10pos) = experiment: cells; assay type: cell-based, human; conditions: Homo sapiens, 24 hours, 3H-thymidine
Description: In addition to LNCaP, a number of B-cell lines, such as Ramos and Namalwa cells express CD10 (CD10^pos cells).
Suspension cells, BALL-1, Ramos and Namalwa cells were cultured in RPMI media containing 10% heat inactivated fetal calf serum (FCS). On the day of the study, the cells were collected, washed and resuspended at a concentration of 0.5×10^6 cells/ml in RPMI containing 10% FCS. 100 μl of cell suspension was added to 96 well plates. […] Finally 10 μl of a 100 μCi/ml ^3H-thymidine was added per well and the plates were incubated for 24 hours. The plates were harvested using a 96 well Harvester (Packard Instruments) and counted on a Packard Top Count counter. Four parameter logistic curves were fitted to the ^3H-thymidine incorporation as a function of drug molarity using Prism software to determine IC50 values.

[1] = Metabolism and clearance of Suc-Leu-Ala-Leu-Dox in mice (plasma, urine); assay type: in vivo, mouse
Description: Plasma samples of 100 μl were transferred to microcentrifuge tubes (1.5 mL) and an internal standard of daunorubicin (20 μL at 0.5 mg/ml) was added together with acetonitrile (400 μl). The tubes were capped and briefly vortexed followed by centrifugation at 14,000 rpm. 420 μl from each tube was removed and dried in vacuo. Each sample was reconstituted in 65 μl 20 mM aqueous ammonium formate (AF) pH 4.5 buffer containing acetonitrile (20%) prior to analysis by reverse phase liquid chromatography in combination with tandem mass spectrometry (LC MS/MS).
Urine was collected at 2 and 24 hours post administration from pairs of mice in metabolic cages. Urine samples were diluted with AF buffer containing acetonitrile (20%) to give a target analyte concentration within the practical range of the LC MS/MS assay. 30 μl of each diluted sample was placed in a micro centrifuge tube (1.5 ml) and an internal standard of daunorubicin (20 μL at 0.5 mg/ml) was added together with 50 μl of AF buffer containing acetonitrile (20%). Each sample was then analyzed by LC MS/MS.
An Agilent HP1100 HPLC with DAD detector and Chemstation software was coupled to a PE Sciex API 365 mass spectrometer with an electrospray ion source. HPLC was performed on a TSK-Gel Super ODS, […], 4.6×50 mm (TosoHaas) reversed phase column equipped with a […] C18 guard disc (Higgins Analytical) and stainless steel frit (Upchurch Scientific). Chromatography was performed at room temperature. The flow rate was 0.5 ml/min. Injection volume was 50 μl. Gradient elution was performed using a mobile phase of AF buffer with increasing amounts of acetonitrile. The API 365 was operated at 365° C. in a multiple reaction monitoring mode, set to monitor specific analyte parent-daughter ion pairs. Integration of chromatograms was performed by MacQuan software (PE Sciex) and quantitation of each analyte obtained by comparison to previously obtained calibration curves. Daunorubicin was used as an internal standard in all cases.

[2] = Metabolism and clearance of Suc-Met-Ala-Leu-Dox in mice (plasma, urine); assay type: in vivo, mouse
Description: Plasma samples were obtained at 1 or 4 hours, and urine was collected at 2 and 24 hours post administration. Levels of the prodrug and metabolites were measured by LC-MS with UV detection of doxorubicin.

in vivo [3] = conditions: female, mouse, iv
[4] = tested on: human colon carcinoma (HT-29); experiment: HT-29 xenograft efficacy study; conditions: 4.0 mg/kg every 7 days for 5 doses
From the text: Healthy young male nude mice were subcutaneously injected with 5 million of HT-29 cells.

in vivo [5] = conditions: female, ICR, mouse, iv
Description: Plasma was obtained from three individual animals in each group at 5 minutes, 1, 2, 4, or 6 hr.

[6] = SD-MTD studies, 60 days, normal mice (Example 14); conditions: mouse, in vivo
Description: In the single dose Maximum Tolerated Dose (SD-MTD) studies, groups of normal mice were administered intravenous bolus doses of the prodrug. The mice were observed daily for 60 days and body weights measured twice weekly. The SD-MTD was estimated to be equal to the highest dose that produced no death in mice after 60 days.

tumor-bearing nude mice = experiment: Repeat-dose tolerability / repeat dose MTD in tumor bearing mice; assay type: in vivo, mouse; conditions: Table 11, five doses at five day or 1 week intervals
From the text: In one study, one animal in each dose group (n=8) was terminated as a possible drug-related toxicity death late in the study, at Days 58 and 57 in the low and high dose-groups respectively. The safety of the compound was evidenced by little body weight loss in either the high or low dose groups (less than 5% of the initial weight) during the 60-day observation period, in surviving animals (FIG. 14). In the other study, both the high and low dose were well tolerated. Only one animal in the high dose group (n=10) had over 15% of body weight loss at the end of the study (Day 61).
In repeat-dose studies in tumor bearing mice, groups of ten mice were dosed with various amounts of prodrug for a total of five doses at either five day or 1 week intervals. […] Thus, the prodrugs permit a much greater amount of therapeutic agent to be delivered to the body as a whole and thus to the vicinity of the target cell.

[7] = tested on: human colon carcinoma (LS174T); experiment: LS174T xenograft efficacy study; conditions: doxorubicin-insensitive model
Description: Healthy young female nude mice were subcutaneously implanted with chunks of LS174T. […] Tumor size and body weights were measured twice weekly for up to 60 days.

[8] = mouse, in vivo
[9] = tested on: HeLa cell anion exchange fraction (F1), trouase; experiment: Relative cleavage by HeLa cell anion exchange fraction (F1) versus Suc-βAla-Leu-Ala-Leu standard; assay type: biochemical, human
Description: Thirty billion commercially produced HeLa Cells (human cervical carcinoma, Computer Cell Culture Ceizter, Seneffe, Belgium) were homogenized with a sonicator and with a Dounce homogenizer in 108 mL of aqueous lysis solution. The lysis solution contained 0.02% w/v Triton X-100, 0.04% w/v sodium azide, and a cocktail of protease inhibitors (2 tablets/50 mL Complete™, EDTA-free tablets, Roche Molecular Biochemicals). The cell homogenate was centrifuged 30 minutes at 4° C. at 5000×g and the pellet was homogenized in a second 108 mL of lysis solution using a Dounce homogenizer and centrifuged as before. The supernatants were combined and centrifuged for 90 min at 145,000×g at 4° C.
A portion of the ultracentrifugation supernatant was diluted 2-fold with a 20 mM triethanolamine-HCl pH 7.2 buffer containing 0.01% (w/v) Triton X-100 and 0.02% (w/v) sodium azide (equilibration buffer). Thirty mL of the resulting solution, corresponding to approximately 180 mg of protein, was loaded at 4° C. on a 2.6×9.4 cm Source™ 15Q (Amersham Pharmacia Biotech) low pressure anion exchange chromatography column (1 ml/minute). The column was then washed with 250 ml of the equilibration buffer at a flow rate of 1 mL/minute. Proteins were eluted in a NaCl linear concentration gradient (0–0.5 M in the equilibration buffer, total volume of the gradient was 1000 ml) at a flow rate of 3 ml/minute. Two-minute fractions were collected and used for enzyme activity determination using βAla-Leu-Ala-Leu-Dox as the substrate. Its transformation into Ala-Leu-Dox was quantified by reverse phase high performance liquid chromatography utilizing fluorescence detection of the anthracycline moiety. The fractions containing the highest activity levels were pooled (fractions #43–46; ˜0.13 M NaCl), supplemented with protease inhibitors (Complete™, EDTA-free tablets, Roche Molecular Biochemicals), and stored as aliquots at −80° C.
Test compounds were incubated for 2 hr at 37° C. at a concentration of 12.5 μg/mL with HeLa cell anion exchange fraction (F1), as prepared in Example 1(c). Following incubation, three volumes of acetonitrile were added to stop the reaction and remove protein from the mixture. The sample was centrifuged at 18,000 g for 5 minutes and 100 μL of supernatant was mixed with 300 μL of water prior to analysis by HPLC. For HPLC analysis 50 μL of sample was injected on a 4.6×50 mm 2μ TSK Super-ODS chromatography column at 40° C. and eluted with a 3 minute linear gradient from 26% to 68% acetonitrile in aqueous 20 mM ammonium acetate pH 4.5 buffer at 2 mL/min. Detection was by fluorescence using an excitation wavelength of 235 nm and an emission wavelength of 560 nm.
the amount of cleavage of each test compound was compared to the amount of a standard Suc-βAla-Leu-Ala-Leu-therapeutic agent conjugate cleaved by F1 under the same conditions. The therapeutic agent in the standard (Dox or Dnr) was the same as in the test compound. Table 3 provides the relative cleavage rates of several tripeptide prodrugs.

[10] = tested on: healthy young female normal mice; conditions: Example 7
[11] = after single intravenous 117 mg/kg Suc-Leu-Ala-Leu-Dox
[12] = after single intravenous 120 mg/kg Suc-Met-Ala-Leu-Dox

For `COc1cccc2c1C(=O)c1c(O)c3c(c(O)c1C2=O)C[C@@](O)(C(=O)CO)C[C@@H]3O[C@H]1C[C@H](N)[C@H](O)[C@H](C)O1` [Doxorubicin, reference compound], which IC50 (Namalwa cells (CD10pos)) is on record?
The IC50 was 10 nM.

What about the “Urine 2 hr, percent of administered dose” value [1, 11] of the same molecule?
The value was 0.05%.

What about the “Urine 24 hr, percent of administered dose” value [1, 11] of the same molecule?
Its value is 0.15%.

And the “Plasma 1 hr, percent of administered dose” value ([1]; female, mouse, in vivo, iv, 117 mg/kg, 1 h)?
The value was 0.002%.

And the “Plasma 4 hr, percent of administered dose” value (shortened to “Plasma 4 hr, percent”) ([1]; female, mouse, in vivo, iv, 117 mg/kg, 4 h)?
The value was 0.000%.

And the “Urine 2 hr, percent of administered dose” value [2, 12]?
The value was 0.30%.

What about the “Urine 24 hr, percent of administered dose” value [2, 12] of the same molecule?
Its value is 0.61%.

And the “Plasma 1 hr, percent of administered dose” value ([2]; female, mouse, in vivo, iv, 120 mg/kg, 1 h)?
Its value is 0.002%.

And the “Plasma 4 hr, percent” value ([2]; female, mouse, in vivo, iv, 120 mg/kg, 4 h)?
The value was 0.002%.

And the MTD at 28 days (in vivo [3])?
Its MTD at 28 days is 4 to 8 mg/kg.

And the “Calculated Mean Day of Survival” value [4]?
Its value is 30.0 ± 3.7 days.

And the “Extension of Mean Day of Survival over controls” value [4]?
Its value is 16.7%.

And the “Number of Long Term Survivors” value [4]?
Its value is 0/10.

And the “Calculated Mean Day of Survival” value ([4]; listed as doxorubicin)?
Its value is 30 days.

And the AUC (in vivo [5])?
Its AUC is 3.3 µM·h.

And the MTD at 60 days ([6]; Table 11, doses as first stated, intravenous bolus, 60 days)?
Its MTD at 60 days is 4 mg/kg.

And the “Optimal Efficacy Repeat Dose (mg/kg), value in parentheses (doxorubicin equivalent dose)” value (tumor-bearing nude mice)?
The value was 4 (4) mg/kg.

And the “Optimal Efficacy Repeat Dose (mg/kg)” value (tumor-bearing nude mice; tumor bearing mice, 60 days)?
The value was 4 (4) mg/kg.

And the “anti-tumor activity in LS174T xenograft” value [7]?
The value was “virtually inactive”.

Which MTD at 28 day ([8]; intravenous) does the source give for `COc1cccc2c1C(=O)c1c(O)c3c(c(O)c1C2=O)C[C@@](O)(C(=O)CO)C[C@@H]3O[C@H]1C[C@H](NC(=O)[C@H](CC(C)C)NC(=O)[C@H](C)NC(=O)[C@H](CCSC)NC(=O)CCC(=O)O)[C@H](O)[C@H](C)O1` [Suc-Met-Ala-Leu-Dox] here?
Its MTD at 28 day is ~40 mg/kg.

What about the MTD at 28 day ([8]; iv) of the same molecule?
The MTD at 28 day was ~71 mg/kg.

And the “Plasma 4 hr, percent” value ([2]; mouse, in vivo, iv, 120 mg/kg)?
The value was ~0.001%.

What about the “Urine 2 hr, percent of administered dose” value ([2]; mouse, in vivo, iv, 120 mg/kg) of the same molecule?
The value was 6.6%.

And the “Relative Cleavage %” value ([9]; 2 hr at 37° C., 12.5 μg/mL, HeLa F1, relative to Suc-βAla-Leu-Ala-Leu-(Dox or Dnr) standard)?
The value was 49%.

What about the “Relative Rate of Cleavage” value ([9]; relative to Suc-βAla-Leu-Ala-Leu-Dox = 100 (Tables 11 and 12)) of the same molecule?
The value was 49.

And the “dose of doxorubicin at single dose MTD, fold higher than with doxorubicin alone” value [10]?
The value was “about 1.5 fold”.

And the “acute signs of toxicity” value ([10]; single intravenous 24-120 mg/kg)?
The value was “no acute signs of toxicity”.

And the MTD at 60 day ([6]; intravenous, SD MTD (mg/kg), value in parentheses (doxorubicin equivalent dose), Table 11, doses as first stated)?
Its MTD at 60 day is 42 mg/kg.

And the MTD at 60 day ([6]; intravenous, SD MTD (mg/kg), value in parentheses: doxorubicin equivalent dose, Table 12, re-analyzed data and new data)?
The MTD at 60 day was 42 mg/kg.

What about the MTD at 60 day ([6]; intravenous, Table 12, re-analyzed data and new data, read-out: SD MTD) of the same molecule?
Its MTD at 60 day is 70 mg/kg.

What about the MTD at 60 day ([6]; iv, Table 11, doses as first stated, intravenous bolus, 60 days, read-out: SD MTD) of the same molecule?
Its MTD at 60 day is 70 mg/kg.
